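A five-concentration, 48-hour dose response in 96-well plates underlies each endpoint, interpolated linearly between surrounding concentrations. Definition used: TGI = concentration required for complete inhibition of growth.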
Legend:
Test in all cases: growth of human tumour cells (NCI), 48 h
[1] = tested on: SR leukemia
[2] = tested on: MDA-N
[3] = tested on: NCI-H460 lung
[4] = tested on: OVCAR-5 ovarian
[5] = tested on: UACC-62 melanoma
[6] = tested on: SF-295 CNS
[7] = tested on: MOLT-4 leukemia
[8] = tested on: T-47D breast
[9] = tested on: LOX IMVI melanoma
[10] = tested on: HL-60(TB) leukemia
[11] = tested on: HOP-62 NSCLC
[12] = tested on: SN12C renal
[13] = tested on: HS 578T breast
[14] = tested on: 786-0 renal
[15] = tested on: MDA-MB-435
[16] = tested on: HOP-92 NSCLC
[17] = tested on: SNB-75 CNS
[18] = tested on: NCI-H23 lung
[19] = tested on: KM12 colon
[20] = tested on: M14 melanoma
[21] = tested on: HCC-2998 colon
[22] = tested on: IGROV1 ovarian
[23] = tested on: NCI/ADR-RES ovarian
[24] = tested on: OVCAR-4 ovarian
[25] = tested on: SK-MEL-28 melanoma
[26] = tested on: SW-620 colon
[27] = tested on: RPMI-8226 leukemia
[28] = tested on: CCRF-CEM leukemia
[29] = tested on: MCF7 breast
[30] = tested on: MDA-MB-231 breast
[31] = tested on: HCT-116 colon
[32] = tested on: DU-145 prostate
[33] = tested on: TK-10 renal
[34] = tested on: HT29 colon
[35] = tested on: SNB-19 CNS
[36] = tested on: UACC-257 melanoma
[37] = tested on: NCI-H226 lung
[38] = tested on: U251 CNS
[39] = tested on: PC-3 prostate
[40] = tested on: SF-268 CNS
[41] = tested on: COLO 205 colon
[42] = tested on: OVCAR-3 ovarian
[43] = tested on: NCI-H522 lung
[44] = tested on: EKVX NSCLC
[45] = tested on: MALME-3M melanoma
[46] = tested on: BT-549 breast
[47] = tested on: SF-539 CNS
[48] = tested on: OVCAR-8 ovarian
[49] = tested on: K-562 leukemia
[50] = tested on: SK-MEL-5 melanoma
[51] = tested on: UO-31 renal
[52] = tested on: ACHN renal
[53] = tested on: SK-OV-3 ovarian
[54] = tested on: RXF 393 renal
[55] = tested on: A549 NSCLC
[56] = tested on: HCT-15 colon
[57] = tested on: CAKI-1 renal
[58] = tested on: A498 renal
[59] = tested on: SK-MEL-2 melanoma

Cc1cc(C)n(-c2nc(C)c(CCO)c(=O)[nH]2)n1
TGI [1]: > 100 µM | TGI [2]: > 100 µM | TGI [3]: > 100 µM | TGI [4]: > 100 µM | TGI [5]: > 100 µM | TGI [6]: > 100 µM | TGI [7]: > 100 µM | TGI [8]: > 100 µM | TGI [9]: > 100 µM | TGI [10]: > 100 µM | TGI [11]: > 100 µM | TGI [12]: > 100 µM | TGI [13]: > 100 µM | TGI [14]: > 100 µM | TGI [15]: > 100 µM | TGI [16]: > 100 µM | TGI [17]: > 100 µM | TGI [18]: > 100 µM | TGI [19]: > 100 µM | TGI [20]: > 100 µM | TGI [21]: > 100 µM | TGI [22]: > 100 µM | TGI [23]: > 100 µM | TGI [24]: > 100 µM | TGI [25]: > 100 µM | TGI [26]: > 100 µM | TGI [27]: > 100 µM | TGI [28]: > 100 µM | TGI [29]: > 100 µM | TGI [30]: > 100 µM | TGI [31]: > 100 µM | TGI [32]: > 100 µM | TGI [33]: > 100 µM | TGI [34]: > 100 µM | TGI [35]: > 100 µM | TGI [36]: > 100 µM | TGI [37]: > 100 µM | TGI [38]: > 100 µM | TGI [39]: > 100 µM | TGI [40]: > 100 µM | TGI [41]: > 100 µM | TGI [42]: > 100 µM | TGI [43]: > 100 µM | TGI [44]: > 100 µM | TGI [45]: > 100 µM | TGI [46]: > 100 µM | TGI [47]: > 100 µM | TGI [48]: > 100 µM | TGI [49]: > 100 µM | TGI [50]: > 100 µM | TGI [51]: > 100 µM | TGI [52]: > 100 µM | TGI [53]: > 100 µM | TGI [54]: > 100 µM | TGI [55]: > 100 µM | TGI [56]: > 100 µM

NC1=Nc2ccccc2Sc2cccc(F)c21
TGI [1]: > 100 µM | TGI [2]: > 100 µM | TGI [3]: > 100 µM | TGI [4]: > 100 µM | TGI [5]: > 100 µM | TGI [6]: > 100 µM | TGI [7]: > 100 µM | TGI [8]: > 100 µM | TGI [9]: > 100 µM | TGI [10]: 88 µM | TGI [11]: > 100 µM | TGI [12]: > 100 µM | TGI [14]: > 100 µM | TGI [15]: > 100 µM | TGI [16]: > 100 µM | TGI [17]: > 100 µM | TGI [18]: > 100 µM | TGI [19]: > 100 µM | TGI [20]: > 100 µM | TGI [21]: > 100 µM | TGI [22]: > 100 µM | TGI [23]: > 100 µM | TGI [24]: > 100 µM | TGI [25]: > 100 µM | TGI [26]: > 100 µM | TGI [27]: > 100 µM | TGI [28]: 56.9 µM | TGI [29]: > 100 µM | TGI [57]: > 100 µM | TGI [30]: > 100 µM | TGI [31]: > 100 µM | TGI [32]: > 100 µM | TGI [33]: > 100 µM | TGI [34]: > 100 µM | TGI [35]: > 100 µM | TGI [36]: > 100 µM | TGI [37]: > 100 µM | TGI [38]: > 100 µM | TGI [39]: > 100 µM | TGI [40]: > 100 µM | TGI [41]: > 100 µM | TGI [42]: > 100 µM | TGI [43]: > 100 µM | TGI [44]: > 100 µM | TGI [45]: > 100 µM | TGI [46]: > 100 µM | TGI [58]: > 100 µM | TGI [47]: > 100 µM | TGI [59]: > 100 µM | TGI [48]: > 100 µM | TGI [49]: > 100 µM | TGI [50]: > 100 µM | TGI [51]: > 100 µM | TGI [52]: > 100 µM | TGI [53]: > 100 µM | TGI [54]: > 100 µM | TGI [55]: > 100 µM | TGI [56]: > 100 µM

COc1cc(S(=O)(=O)Nc2ccc(-c3csc(N4C(=O)CSC4c4ccccc4O)n3)cc2)ccc1Cl (stereo unspecified)
TGI [1]: > 100 µM | TGI [2]: > 100 µM | TGI [3]: 52.8 µM | TGI [4]: > 100 µM | TGI [5]: > 100 µM | TGI [6]: > 100 µM | TGI [7]: > 100 µM | TGI [9]: > 100 µM | TGI [10]: 49.8 µM | TGI [11]: > 100 µM | TGI [12]: > 100 µM | TGI [14]: > 100 µM | TGI [15]: > 100 µM | TGI [16]: 82.1 µM | TGI [17]: 92.2 µM | TGI [18]: > 100 µM | TGI [19]: > 100 µM | TGI [20]: > 100 µM | TGI [21]: 41.4 µM | TGI [22]: > 100 µM | TGI [23]: > 100 µM | TGI [24]: > 100 µM | TGI [25]: 88.2 µM | TGI [26]: > 100 µM | TGI [27]: > 100 µM | TGI [28]: > 100 µM | TGI [29]: > 100 µM | TGI [57]: > 100 µM | TGI [31]: > 100 µM | TGI [32]: > 100 µM | TGI [34]: > 100 µM | TGI [35]: > 100 µM | TGI [36]: 97.6 µM | TGI [37]: > 100 µM | TGI [39]: > 100 µM | TGI [40]: > 100 µM | TGI [41]: 61.1 µM | TGI [42]: > 100 µM | TGI [43]: 55.6 µM | TGI [44]: 85.5 µM | TGI [45]: > 100 µM | TGI [46]: > 100 µM | TGI [47]: > 100 µM | TGI [59]: > 100 µM | TGI [48]: > 100 µM | TGI [49]: > 100 µM | TGI [50]: > 100 µM | TGI [51]: > 100 µM | TGI [52]: > 100 µM | TGI [53]: > 100 µM | TGI [55]: > 100 µM | TGI [56]: > 100 µM

Source: PubChem BioAssay (NCI)
